From patent publication US20170145472A1, “METHOD OF DETECTING HELICASE ACTIVITY” (University of Macau, priority 2015, published 2017)

How the values were obtained:
[1] = test system: F21T G-quadruplex DNA; test: FRET melting assay, G-quadruplex; format: binding; conditions: F21T 0.2 μM, complex 9 5 μM
Description: (§1) The ability of complex 9 to stabilize G-quadruplex DNA was investigated using a fluorescence resonance energy transfer (FRET) melting assay. The labeled G-quadruplex-forming oligonucleotide F21T, consisting of a sequence 5′-FAM-(SEQ ID NO: 5)-TAMRA-3′ (donor fluorophore FAM: 6-carboxyfluorescein; acceptor fluorophore TAMRA: 6-carboxytetramethylrhodamine), was diluted to 200 nM in a potassium cacodylate buffer (100 mM KCl, pH 7.0), and then heated from room temperature to 95° C. in the presence of the indicated concentrations of complex 9. The labeled duplex-forming oligonucleotide F10T, consisting of a sequence 5′-FAM-[…]-HEG-(SEQ ID NO: 6)-3′ (HEG linker: [(—CH2—CH2—O—)6]), was treated in the same manner, except that the buffer was changed to 10 mM lithium cacodylate (pH 7.4). Fluorescence readings were taken at intervals of 0.5° C. in a range of 25 to 95° C.

[2] = test system: Pu27 G-quadruplex DNA; test: G-quadruplex fluorescent intercalator displacement (G4-FID) assay; format: binding
Description: The FID assay was performed as described. The Pu27 G-quadruplex DNA (0.25 μM) in Tris-HCl buffer (20 mM Tris, 100 mM KCl, pH 7.0) were annealed by heating at a temperature of 72-98° C., in particular 95° C., for at least 10 min. Indicated concentration of thiazole orange (0.5 μM for Pu27 G-quadruplex DNA and 0.5 μM for ds17) was added and the mixture was incubated for at least 30 minutes, in particular 1 hour. Emission measurement was taken after addition of each indicated concentration of complex 9 followed by an equilibration time for 5 minutes. The fluorescence area was converted into percentage of displacement (PD) by using the following equation. PD=100−[(FA/FA0)×100] (FA0=fluorescence area of DNA-TO complex in the absence of complex 9; FA=fluorescence area in the presence of complex 9).

[3] = target: T1, helicase (Hepatitis C virus genotype 1a, UniProt P27958); test: Luminescence response of complexes towards helicase alone
T1 construct: upon the addition of 0.8 μM HCV NS3 helicase; purchased Prospec Inc. (Ness-Ziona, Israel)
Excerpt: M G-quadruplex DNA over helicase, IG4/Ihelicase refers to the ratio of the lunminscent response of PS2. M G-quadruplex DNA over helicase.

[4] = Photophysical measurement; format: physicochemical
Description: Emission spectra and lifetime measurements for complexes were performed on a PTI TimeMaster C720 Spectrometer (Nitrogen laser: pulse output 337 nm) fitted with a 380 nm filter. Error limits were estimated: λ (±1 nm); τ (±10%); φ (±10%). All solvents used for the lifetime measurements were degassed using three cycles of freeze-vac-thaw.
Luminescence quantum yields were determined using the method of Demas and Crosby [Ru(bpy)3][PF6]2 in degassed acetonitrile as a standard reference solution (Φr=0.062) and calculated according to the following equation:
Φs=Φr(Br/Bs)(ns/nr)^2(Ds/Dr) • where the subscripts s and r refer to sample and reference standard solution respectively, n is the refractive index of the solvents, D is the integrated intensity, and Φ is the luminescence quantum yield. The quantity B was calculated by B=1−10^−AL, where A is the absorbance at the excitation wavelength and L is the optical path length.

[5] = test system: PS2.M G-quadruplex DNA; test: Luminescence response of Ir(III) complexes towards different forms of DNA; format: binding; conditions: complex 1 μM, DNA 5 μM
Excerpt: M G-quadruplex DNA (G4) over dsDNA (ds17) and ssDNA (CCRS-DEL), in particular IG4/IdsDNA refers to the ratio of the luminescent response of PS2. M G-quadruplex DNA over dsDNA (ds17); and IG4/IssDNA refers to the ratio of the luminescent response of PS2. M G-quadruplex DNA over ssDNA(CCR5-DEL).
M G-quadruplex DNA over dsDNA (ds17) and ssDNA (CCRS-DEL), in particular IG4/IdsDNA refers to the ratio of the luminescent response of PS2. M G-quadruplex DNA over dsDNA (ds17); and IG4/IssDNA refers to the ratio of the luminescent response of PS2. M G-quadruplex DNA over ssDNA(CCR5-DEL).
The G-quadruplex DNA-forming sequence (PS2. M) was annealed in Tris-HCl buffer (20 mM Tris, 100 mM KCl, pH 7.0) and were stored at −20° C. or less than −20° C. before use. Complex 1-17 (1 μM) was added to 5 μM of ssDNA, dsDNA or PS2. M G-quadruplex DNA in Tris-HCl buffer (20 mM Tris, pH 7.0).

[6] = test system: F10T dsDNA; test: FRET melting assay, duplex; format: binding; conditions: F10T 0.2 μM, complex 9 5 μM
Description: as §1

[7] = target: T2, HCV NS3 helicase (Hepatitis C virus genotype 1a, UniProt P27958); test: G-quadruplex-based luminescent HCV NS3 helicase activity assay; format: biochemical
T2 construct: upon the addition of 0.8 μM HCV NS3 helicase; purchased Prospec Inc. (Ness-Ziona, Israel)
Description: The random-coil oligonucleotides ON1 (100 μM) and ON2 (100 μM) were incubated in Tris buffer (20 mM, pH 7.0). The solution was heated at a temperature of 72-98° C., in particular 95° C., for at least 30 seconds in particular 10 min, cooled to room temperature at 0.1° C./s, and further incubated at room temperature for 1 hour to ensure formation of the duplex substrate. The annealed product was stored at −20° C. before use. For assaying enzyme activity, 50 μL of Tris buffered solution (5 mM Tris-HCl, 5 mM NaCl, 1 mM MgCl2, 1 mM ATP, 0.1 mM DTT, pH 7.9) with the indicated concentrations of helicase or S1, Endo, DpnI, ExoI, EcoRI, RNase, DNase, and SSB were added to a solution containing the duplex substrate (0.25 μM). The mixture was heated to 37° C. for at least 30 minutes, e.g. 2 hours, to allow the indicated enzymes-catalyzed unwinding of the duplex substrate to take place. The duplex unwinding reaction was quenched by the addition of EDTA at a final concentration of 20 mM, and the mixture was subsequently diluted using Tris buffer (20 mM Tris, 20 mM KCl, 150 mM NH4Ac, pH 7.2) to a final volume of 500 μL. […] Emission spectra were recorded in the 500-720 nm range using an excitation wavelength of 360 nm.
For the detection of helicase activity in cell extract, 50 μL of Tris buffered solution (5 mM Tris-HCl, 5 mM NaCl, 1 mM MgCl2, 1 mM ATP, 0.1 mM DTT, pH 7.9) and the indicated concentrations of helicase were added to a solution containing the duplex substrate (0.25 μM) and cell extract. The mixture was heated to 37° C. for at least 30 minutes, e.g. 2 hours, to allow the helicase-catalyzed unwinding of the duplex substrate to take place. The duplex unwinding reaction was quenched by the addition of EDTA at a final concentration of 20 mM, and the mixture was subsequently diluted using Tris buffer (20 mM Tris, 20 mM KCl, 150 mM NH4Ac, pH 7.2) to a final volume of 500 μL. Finally, 1 μM of complex 9 was added to the mixture. Emission spectra were recorded in the 500-720 nm range using an excitation wavelength of 360 nm.

T2 sequence (P27958 1027-1657): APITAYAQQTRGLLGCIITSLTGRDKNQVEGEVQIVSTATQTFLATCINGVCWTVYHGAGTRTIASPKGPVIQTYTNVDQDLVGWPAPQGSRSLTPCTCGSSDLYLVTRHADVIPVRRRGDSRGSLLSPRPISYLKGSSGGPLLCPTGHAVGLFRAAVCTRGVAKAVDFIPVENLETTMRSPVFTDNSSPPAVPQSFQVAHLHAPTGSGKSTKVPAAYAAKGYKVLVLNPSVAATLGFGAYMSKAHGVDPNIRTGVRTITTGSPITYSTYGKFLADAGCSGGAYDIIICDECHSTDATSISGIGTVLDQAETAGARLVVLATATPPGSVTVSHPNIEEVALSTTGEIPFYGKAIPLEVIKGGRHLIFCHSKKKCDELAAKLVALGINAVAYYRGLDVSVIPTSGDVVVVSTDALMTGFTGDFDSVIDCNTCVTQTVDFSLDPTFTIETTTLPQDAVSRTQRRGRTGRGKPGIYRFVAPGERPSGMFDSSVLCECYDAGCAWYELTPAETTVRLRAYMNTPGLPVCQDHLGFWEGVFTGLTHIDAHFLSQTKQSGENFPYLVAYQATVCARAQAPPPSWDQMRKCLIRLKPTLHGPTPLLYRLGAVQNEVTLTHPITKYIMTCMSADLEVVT
T1 sequence (P27958 1027-1657): as above

F[P-](F)(F)(F)(F)F.[Ir+3].[c-]1ccccc1-c1ccc2ccccc2n1.[c-]1ccccc1-c1ccc2ccccc2n1.c1cnc2c(c1)ccc1cccnc12 [Complex 9]
increase of melting temperature (ΔTm) of F21T G-quadruplex [1]: about 13 °C | G4DC50, half-maximal concentration of compound required to displace 50% TO from DNA ([2]; Pu27 G-quadruplex DNA 0.25 μM, thiazole orange 0.5 μM, Tris-HCl buffer): ca. 5 μM | displacement of thiazole orange from G-quadruplex DNA compared with duplex DNA ([2]; Pu27 G-quadruplex vs ds17 duplex): higher efficacy than from duplex DNA | change in luminescence intensity of the complex 9+G-quadruplex ensemble upon addition of helicase ([3]; 0.8 μM HCV NS3 helicase): no significant change | luminescence enhancement in the presence of helicase only ([3]; helicase alone, no DNA): no luminescence enhancement in the presence of helicase | Lifetime [4]: 8.13 μs | λem [4]: 570 nm | Quantum yield ([4]; reference [Ru(bpy)3][PF6]2 in degassed acetonitrile): 0.12 | luminescence response in the presence of the PS2.M G-quadruplex [5]: significantly enhanced luminescence response | change in the melting temperature of F10T dsDNA [6]: 4 °C | luminescence of complex 9 upon incubation with helicase and the ON1-ON2 duplex substrate ([7]; ON1-ON2 duplex substrate, K+): significantly enhanced | luminescence of complex 9 in response to helicase for the mutant DNA sequences ([7]; ON1m/ON2 duplex mutant 0.25 μM, helicase 0.9 μM, complex 9 1 μM): slight decrease | enhancement in luminescence of the system ([7]; helicase concentration 0.9 μM): ca. 4.5 fold | luminescence intensity of the system with increasing helicase in cell extract ([7]; reaction system containing 0.5% (v/v) cell extract): gradual increase in luminescence intensity | detection limit of the assay for helicase ([7]; signal-to-noise ratio (S/N) of 3): 0.09 µM
